Data reported in ChEMBL document CHEMBL4342429, “Synthesis and evaluation of substituted 8,8-dimethyl-8H-pyrano[2,3-f]chromen-2-one derivatives as vasorelaxing agents” (Bioorg Med Chem Lett, 2020).

Columns and labels:
[1] = test system: Mesenteric artery; assay: Vasodilating activity against U46619-induced contractions in Wistar rat endothelium intact main mesenteric artery assessed as increase in sensitivity relative to scopoletin; format: functional
[2] = test system: Mesenteric artery; assay: Vasodilating activity in Wistar rat endothelium intact main mesenteric artery assessed as inhibition of U46619-induced contractions; format: functional, tissue-based; conditions: for EC50: Rattus norvegicus, Wistar, Mesenteric artery
[3] = test system: Mesenteric artery; assay: Vasodilating activity in Wistar rat endothelium intact main mesenteric artery assessed as inhibition of U46619-induced contractions at 30 uM relative to control; format: functional
[4] = test system: Mesenteric artery; assay: Vasodilating activity in Wistar rat endothelium intact main mesenteric artery assessed as inhibition of U46619-induced contractions at 1000 uM relative to control; format: functional
[5] = test system: Mesenteric artery; assay: Vasodilating activity in Wistar rat endothelium intact main mesenteric artery preconstricted with 100 nM U46619 assessed as vasorelaxation; format: functional, tissue-based
[6] = test system: Mesenteric artery; assay: Vasodilating activity in Wistar rat endothelium intact main mesenteric artery preconstricted with 100 nM U46619 assessed as vasorelaxation relative to control; format: functional
[7] = test system: Mesenteric artery; assay: Vasodilating activity in Wistar rat main mesenteric artery preconstricted with 100 nM U46619 assessed as relaxation preincubated for 20 mins in presence of 1 mM tetraethyl ammonium relative to control; format: functional
[8] = test system: Mesenteric artery; assay: Vasodilating activity in Wistar rat endothelium-denuded main mesenteric artery preconstricted with 100 nM U46619 assessed as vasorelaxation; format: functional, tissue-based
[9] = test system: Mesenteric artery; assay: Vasodilating activity in Wistar rat main mesenteric artery preconstricted with 100 nM U46619 assessed as vasorelaxation relative to control; format: functional
[10] = test system: Mesenteric artery; assay: Vasodilating activity in Wistar rat main mesenteric artery preconstricted with 100 nM U46619 assessed as vasorelaxation in presence of 80 mM KCl relative to control; format: functional
[11] = test system: Mesenteric artery; assay: Vasodilating activity in Wistar rat endothelium-denuded main mesenteric artery preconstricted with 100 nM U46619 assessed as vasorelaxation relative to control; format: functional

| EC50 [2] | SMILES | fold change (FC) [1] | pD2 [2] | Emax at 30 µM [3] | further results |
| --- | --- | --- | --- | --- | --- |
| 3.23 µM | CCCCCN(C)C(=O)CCCOc1cc2ccc(=O)oc2c2c1OC(C)(C)C=C2 | 34.67 | 5.491 | 95.1% | – |
| – | CCCCN(C)C(=O)CCCOc1cc2ccc(=O)oc2c2c1OC(C)(C)C=C2 | – | – | < 10% | – |
| 3.81 µM | CCCCCN(C)C(=O)COc1cc2ccc(=O)oc2c2c1OC(C)(C)C=C2 | 29.4 | 5.419 | 94% | – |
| 5.02 µM | CCCCCN(C)C(=O)CCCCOc1cc2ccc(=O)oc2c2c1OC(C)(C)C=C2 | 22.31 | 5.299 | 83.1% | – |
| 112 µM | COc1cc2ccc(=O)oc2cc1O [SCOPOLETIN] | – | 3.95 | – | Emax at 1000 µM [4]: 89.2% |
| 2.12 µM | CCCCN(C)C(=O)CCCCOc1cc2ccc(=O)oc2c2c1OC(C)(C)C=C2 | 52.83 | 5.674 | 63.6% | – |
| 2.66 µM | CCCCN(C)C(=O)COc1cc2ccc(=O)oc2c2c1OC(C)(C)C=C2 | 42.11 | 5.575 | 65.7% | – |
| – | CCN(CC)CCOc1cc2ccc(=O)oc2c2c1OC(C)(C)C=C2 | – | – | < 10% | – |
| – | CC1(C)C=Cc2c(c(OCCN3CCCC3)cc3ccc(=O)oc23)O1 | – | – | < 10% | – |
| – | CN(C)CCOc1cc2ccc(=O)oc2c2c1OC(C)(C)C=C2 | – | – | < 10% | – |
| – | CC(CN(C)C)Oc1cc2ccc(=O)oc2c2c1OC(C)(C)C=C2 (stereo not given) | – | – | < 10% | – |
| 1.58 µM | COc1cc2ccc(=O)oc2c2c1OC(C)(C)C=C2 | 70.89 | 5.802 | 96.7% | Activity [5]: Dose-dependent effect; Emax [6]: 94.9%; Emax [7]: 54.1%; Activity [8]: Dose-dependent effect; Emax [9]: 94%; Emax [10]: 53.3%; Emax [11]: 93.7% |
| – | CC1(C)C=Cc2c(c(OCCN3CCCCC3)cc3ccc(=O)oc23)O1 | – | – | < 10% | – |
